Assay [1] has as its system cell-free eukaryotic translation system on the basis of a cell extract from Spodoptera frugiperda (Sf21) insect cells. Briefly: Influence of DTT on expression of model proteins in batch and dialysis system (autoradiograph). The conditions noted are these: with Z-VAD-FMK, 48 h. The assay is classed as biochemical. The protocol: For this purpose, the influence of the reducing agent DTT on the synthesis performance of the batch and dialysis system with different model proteins was investigated.
The synthesis of the glycoprotein erythropoietin (N-terminally fused to a melittin signal sequence; Mel-EPO; 20.9 kDa, unglycosylated) and of ETB (49.3 kDa), luciferase (60.6 kDa), Mel-Hb-EGF-eYFP (51 kDa) and bacteriorhodopsin (26.9 kDa) was carried out in the batch (B) and dialysis system (D) with the addition of the caspase inhibitor (Z-VAD-FMK) without (−) and with (+) the addition of DTT in the translation buffer in the presence of ^14C-leucine for 48 h, 27° C. and 600 rpm.
Control=translation mixture without the addition of a DNA template.

The subject of assay [2] is eukaryotic translation system on the basis of a cell extract from Spodoptera frugiperda (Sf21) insect cells. Put plainly: Influence of irreversible and reversible caspase inhibitors on SII-eYFP synthesis, relative fluorescence intensity. Format: biochemical. The conditions noted are these: inhibitor 30 μM, 48 h, dialysis mode, compared with control dialysis mixture without inhibitor. The protocol: Using the example of the fluorescent protein SII-eYFP, the influence of different irreversible caspase inhibitors (Z-VAD-FMK, Ac-VAD-CMK, Ac-DEVD-CMK (SEQ ID NO:1), Q-VD-OPh) and of a reversible caspase inhibitor (Ac-[…]-CHO (SEQ ID NO:10)) on the synthesis was investigated in a eukaryotic dialysis translation system.
The translation of SII-eYFP was carried out using the DNA template pIX3.0-SII-eYFP over 48 h at 600 rpm and 27° C. in the batch and dialysis modes in the presence of different irreversible and reversible caspase inhibitors. All inhibitors were used in a concentration of 30 μM. Following the completion of translation, the different mixtures were examined in the phosphorimager system (Typhoon TRIO+ imager, GE Healthcare) for their fluorescence intensity. For this purpose, 5 μl of each translation mixture was resuspended in 25 μl PBS. Subsequently, 25 μl of this sample was pipetted into a cavity of an Ibidi slide and measured, the excitation of the samples taking place at 488 nm and the emission being measured at 526 nm.

Results on four compounds are retold here after US9951366B2, “Cell-free protein synthesis method and device using a eukaryotic cell lysate in the presence of a caspase inhibitor and the use of a caspase inhibitor for increasing the yield and/or the stability of the synthesized proteins in such a method” (Fraunhofer-Gesellschaft zur Foerderung der angewandten …, priority 2013, dated 2018).

For the compound `O[C@H](CS)[C@H](O)CS` (racemic) [DTT, dithiothreitol], the “effect of absence of DTT on expression of model proteins (luciferase, SII-eYFP, ETB, Mel-Hb-EGF-eYFP, bacteriorhodopsin)” value in assay [1] is listed as “no negative effect”. In addition, the “glycosylation of Mel-EPO” value in assay [1] (with/without DTT) is recorded as “complete glycosylation of the target protein could only be achieved in the presence of DTT”.

In the case of `CC(=O)N[C@@H](CC(=O)O)C(=O)N[C@@H](CCC(=O)O)C(=O)N[C@H](C(=O)N[C@@H](CC(=O)O)C(=O)CCl)C(C)C` [Ac-DEVD-CMK, acetyl-Asp-Glu-Val-Asp-chloromethylketone], the “increase of synthesis yield of fluorescing SII-eYFP” value (“increase” for short) in assay [2] stood at 122%.

Take `CC(C)C(NC(=O)c1ccc2ccccc2n1)C(=O)NC(CC(=O)O)C(=O)COc1c(F)cccc1F` (stereo not drawn) [Q-VD-OPh, N-(2-quinolyl)-Val-Asp-(2,6-difluorophenoxy)-methylketone]: the “increase” value in assay [2] was 77%.

Regarding “acetyl-Ala-Ala-Val-Ala-Leu-Leu-Pro-Ala-Val-Leu-Leu-Ala-Leu-Leu-Ala-Pro-Asp-Glu-Val-Asp-aldehyde (Ac-AAVALLPAVLLALLAPDEVD-aldehyde; SMILES CC(=O)N[C@@H](C)C(=O)N[C@@H](C)C(=O)N[C@H](C(=O)N[C@@H](C)C(=O)N[C@@H](CC(C)C)C(=O)N[C@@H](CC(C)C)C(=O)N1CCC[C@H]1C(=O)N[C@@H](C)C(=O)N[C@H](C(=O)N[C@@H](CC(C)C)C(=O)N[C@@H](CC(C)C)C(=O)N[C@@H](C)C(=O)N[C@@H](CC(C)C)C(=O)N[C@@H](CC(C)C)C(=O)N[C@@H](C)C(=O)N1CCC[C@H]1C(=O)N[C@@H](CC(=O)O)C(=O)N[C@@H](CCC(=O)O)C(=O)N[C@H](C(=O)N[C@H](C=O)CC(=O)O)C(C)C)C(C)C)C(C)C)”, in assay [2], the “increase” value amounted to 53%.
